The values below come from PubChem BioAssay AID1259407 (Chemical Carcinogenesis Research Information System (CCRIS), 2018).

This series relates to CCRIS mutagenicity, Ames/micronucleus/aberration tests. The experiment in a line: CCRIS mutagenicity studies.
Where [1] appears, read: Test System: AMES SALMONELLA TYPHIMURIUM, Strain/Indicator: TA1535, Metabolic Activation: NONE, Method: STANDARD PLATE.

Calls of active or inactive are those of the source. No rule for the calls is given here.

As to `COc1cccc2c1ccc1c(C(=O)O)cc3c(c12)OCO3`, the mutagenic call is, setting by setting: (Test System: AMES SALMONELLA TYPHIMURIUM, Strain/Indicator: D3052, Metabolic Activation: NONE, Method: STANDARD PLATE) “inactive; negative”; (Test System: AMES SALMONELLA TYPHIMURIUM, Strain/Indicator: D3052, Metabolic Activation: RAT, LIVER, S-9, PHENOBARBITAL, Method: STANDARD PLATE) “inactive; negative”; (Test System: AMES SALMONELLA TYPHIMURIUM, Strain/Indicator: G46, Metabolic Activation: NONE, Method: STANDARD PLATE) “inactive; negative”; (Test System: AMES SALMONELLA TYPHIMURIUM, Strain/Indicator: G46, Metabolic Activation: RAT, LIVER, S-9, PHENOBARBITAL, Method: STANDARD PLATE) “inactive; negative”; (Test System: AMES SALMONELLA TYPHIMURIUM, Strain/Indicator: TA98(NR), Metabolic Activation: NONE, Method: STANDARD PLATE) “active; positive”; (Test System: AMES SALMONELLA TYPHIMURIUM, Strain/Indicator: TA98, Metabolic Activation: RAT, LIVER, S-9, PHENOBARBITAL, Method: STANDARD PLATE) “inactive; negative”. The mutagenic call by setting is: (Test System: AMES SALMONELLA TYPHIMURIUM, Strain/Indicator: TA100(NR), Metabolic Activation: NONE, Method: STANDARD PLATE) “active; positive”; (Test System: AMES SALMONELLA TYPHIMURIUM, Strain/Indicator: TA100, Metabolic Activation: RAT, LIVER, S-9, PHENOBARBITAL, Method: STANDARD PLATE) “inactive; negative”; (Test System: AMES SALMONELLA TYPHIMURIUM, Strain/Indicator: TA102, Metabolic Activation: NONE, Method: STANDARD PLATE) “active; positive”; under setting [1], “inactive; negative”; (Test System: AMES SALMONELLA TYPHIMURIUM, Strain/Indicator: TA1535, Metabolic Activation: RAT, LIVER, S-9, PHENOBARBITAL, Method: STANDARD PLATE) “inactive; negative”; (Test System: AMES SALMONELLA TYPHIMURIUM, Strain/Indicator: TA1978, Metabolic Activation: NONE, Method: STANDARD PLATE) “inactive; negative”. For the same compound, the mutagenic call was “inactive; negative” (Test System: AMES SALMONELLA TYPHIMURIUM, Strain/Indicator: TA1978, Metabolic Activation: RAT, LIVER, S-9, PHENOBARBITAL, Method: STANDARD PLATE); “active; positive” (Test System: AMES SALMONELLA TYPHIMURIUM, Strain/Indicator: TM677/8-AZAGUANINE, Metabolic Activation: NONE, Method: SUSPENSION/PLATE); “inactive; negative” (Test System: AMES SALMONELLA TYPHIMURIUM, Strain/Indicator: YG1021, Metabolic Activation: NONE, Method: STANDARD PLATE); “inactive; negative” (Test System: AMES SALMONELLA TYPHIMURIUM, Strain/Indicator: YG1026, Metabolic Activation: NONE, Method: STANDARD PLATE); “active; positive” (Test System: CHINESE HAMSTER OVARY, Strain/Indicator: CHO-K1-BH4 (HGPRT), Metabolic Activation: NONE).
As for `NC(=O)NO`, the mutagenic call reads like this: (End Point: IN VITRO MICRONUCLEUS, Test System: CHINESE HAMSTER V79 CELLS, Metabolic Activation: NONE) “active; positive; effect greater at 16 hr exposure”; (End Point: IN VITRO MICRONUCLEUS, Test System: CHO CELLS, Metabolic Activation: RAT, LIVER, S-9, AROCLOR 1254) “active; positive”; (End Point: In vitro micronucleus, Test System: Human lymphoblastoid TK6 cells, Metabolic Activation: None) “active; positive (p<0.001)”; (Test System: AMES SALMONELLA TYPHIMURIUM, Strain/Indicator: TA97, Metabolic Activation: NONE, Method: STANDARD PLATE) “active; positive”; (Test System: AMES SALMONELLA TYPHIMURIUM, Strain/Indicator: TA97, Metabolic Activation: RAT, LIVER, S-9, AROCLOR 1254, Method: STANDARD PLATE) “active; positive”; (Test System: AMES SALMONELLA TYPHIMURIUM, Strain/Indicator: TA98, Metabolic Activation: RAT, LIVER, S-9, AROCLOR 1254, Method: STANDARD PLATE) “active; positive”. Besides, the mutagenic call (Test System: AMES SALMONELLA TYPHIMURIUM, Strain/Indicator: TA100, Metabolic Activation: RAT, LIVER, S-9, AROCLOR 1254, Method: STANDARD PLATE) was “active; positive”; the mutagenic call (Test System: AMES SALMONELLA TYPHIMURIUM, Strain/Indicator: TA102, Metabolic Activation: RAT, LIVER, S-9, AROCLOR 1254, Method: STANDARD PLATE) is “active; positive”; the mutagenic call under setting [1] is “inactive; negative”; the mutagenic call (Test System: AMES SALMONELLA TYPHIMURIUM, Strain/Indicator: TA1535, Metabolic Activation: RAT, LIVER, S-9, AROCLOR 1254, Method: STANDARD PLATE) is “inactive; negative”; the mutagenic call (Test System: AMES SALMONELLA TYPHIMURIUM, Strain/Indicator: TA1537, Metabolic Activation: NONE, Method: STANDARD PLATE) is “inactive; negative”; the mutagenic call (Test System: E. COLI, Strain/Indicator: WP2 (HCR), Metabolic Activation: NONE, Method: STANDARD PLATE) is “inactive; negative”. Also, the mutagenic call (Test System: MOUSE LYMPHOMA, Strain/Indicator: L5178Y (TK+/TK-), Metabolic Activation: NONE, Method: MICROWELL) was “active; positive”; the mutagenic call (Test System: MOUSE LYMPHOMA, Strain/Indicator: L5178Y (TK+/TK-), Metabolic Activation: NONE, Method: SUSPENSION/PLATE) was “active; positive”; the mutagenic call (Test System: MOUSE LYMPHOMA, Strain/Indicator: L5178Y (TK+/TK-), Metabolic Activation: S-9, Method: MICROWELL) is “active; positive”; the mutagenic call (Test System: UDS RODENT HEPATOCYTES, Strain/Indicator: THY INCORP (NON-S-PHASE), Metabolic Activation: NONE, Method: AUTORADIOGRAPHY) was “active; positive”.
Turning to `CN(C)C(=S)S`, the mutagenic call by setting is: (Test System: AMES SALMONELLA TYPHIMURIUM, Strain/Indicator: TA100, Metabolic Activation: NONE, Method: STANDARD PLATE) “active; positive”; (Test System: AMES SALMONELLA TYPHIMURIUM, Strain/Indicator: TA100, Metabolic Activation: S-9 MIX, Method: STANDARD PLATE) “inactive; negative”.
